Assay [1] has as its target Kappa-type opioid receptor (Homo sapiens, UniProt P41145). Description: GPCRScan assay: inhibition of KOR. Also noted: radioligand conc. used [nm] 0.6 – 1.2, parental cells stable HEK.
Assay [2] concerns the target Sigma intracellular receptor 2 (Homo sapiens, UniProt Q5BJF2). Description: GPCRScan assay: inhibition of Sigma 2. Also noted: radioligand conc. used [nm] 5.0, parental cells HEKT.
The subject of assay [3] is Tyrosine-protein kinase ABL1 (Homo sapiens), P00519 [F317L]. The note with it: Compound concentration 1000.0 nM.
The target in assay [4] is Tyrosine-protein kinase ABL2 (Homo sapiens) (UniProt P42684). The note with it: Compound concentration 1000.0 nM.
Assay [5] has as its target Activin receptor type-1 (Homo sapiens) (UniProt Q04771). Particulars: Compound concentration 1000.0 nM.
Assay [6] addresses ALK tyrosine kinase receptor (Homo sapiens) (UniProt Q9UM73). Particulars: Compound concentration 1000.0 nM.
Assay [7] concerns the target Calcium/calmodulin-dependent protein kinase type 1 (Homo sapiens) (UniProt Q14012). Particulars: Compound concentration 1000.0 nM.
In assay [8] the target is Cyclin-dependent kinase 5 (Homo sapiens) (UniProt Q00535). Particulars: Compound concentration 1000.0 nM.
Cyclin-dependent kinase 5 (Homo sapiens), sequence (Q00535 whole entry, looked up): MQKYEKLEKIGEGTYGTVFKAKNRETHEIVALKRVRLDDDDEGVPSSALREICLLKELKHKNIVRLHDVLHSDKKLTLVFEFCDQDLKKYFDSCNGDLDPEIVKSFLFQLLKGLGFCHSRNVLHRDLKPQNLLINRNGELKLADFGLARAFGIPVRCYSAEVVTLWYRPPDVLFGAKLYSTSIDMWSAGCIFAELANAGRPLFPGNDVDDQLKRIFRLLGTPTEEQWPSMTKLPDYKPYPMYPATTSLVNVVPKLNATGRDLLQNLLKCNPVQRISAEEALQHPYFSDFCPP
The target of assay [9] is Serine/threonine-protein kinase Chk2 (Homo sapiens) (UniProt O96017). Particulars: Compound concentration 1000.0 nM.
Assay [10] addresses Macrophage colony-stimulating factor 1 receptor (Homo sapiens) (UniProt P07333). The note with it: Compound concentration 1000.0 nM.
The target of assay [11] is Serine/threonine-protein kinase DCLK2 (Homo sapiens) (UniProt Q8N568). Particulars: Compound concentration 1000.0 nM.
For assay [12], the system named is Epidermal growth factor receptor (Homo sapiens), P00533 [UNDEFINED MUTATION]. Particulars: Compound concentration 1000.0 nM.
Assay [13] concerns the target Ephrin type-A receptor 5 (Homo sapiens) (UniProt P54756). Particulars: Compound concentration 1000.0 nM.
The target of assay [14] is Ephrin type-B receptor 4 (Homo sapiens) (UniProt P54760). The note with it: Compound concentration 1000.0 nM.
The subject of assay [15] is Fibroblast growth factor receptor 3 (Homo sapiens), P22607 [G697C]. The note with it: Compound concentration 1000.0 nM.
The subject of assay [16] is Receptor-type tyrosine-protein kinase FLT3 (Homo sapiens), P36888 [D835V]. The note with it: Compound concentration 1000.0 nM.
Assay [17] has as its system Receptor-type tyrosine-protein kinase FLT3 (Homo sapiens), P36888 [UNDEFINED MUTATION]. The note with it: Compound concentration 1000.0 nM.
Assay [18] has as its target Tyrosine-protein kinase FRK (Homo sapiens) (UniProt P42685). The note with it: Compound concentration 1000.0 nM.
The target in assay [19] is Tyrosine-protein kinase Fyn (Homo sapiens) (UniProt P06241). The note with it: Compound concentration 1000.0 nM.
In assay [20] the target is G protein-coupled receptor kinase 3 (Homo sapiens) (UniProt P35626). Particulars: Compound concentration 1000.0 nM.
Assay [21] concerns the target Inhibitor of nuclear factor kappa-B kinase subunit beta (Homo sapiens) (UniProt O14920). Particulars: Compound concentration 1000.0 nM.
The target in assay [22] is Interleukin-1 receptor-associated kinase 1 (Homo sapiens) (UniProt P51617). The note with it: Compound concentration 1000.0 nM.
The target of assay [23] is Tyrosine-protein kinase JAK1 (Homo sapiens) (UniProt P23458). The note with it: Compound concentration 1000.0 nM.
In assay [24] the test system is Mast/stem cell growth factor receptor Kit (Homo sapiens), P10721 [D816H]. Particulars: Compound concentration 1000.0 nM.
Assay [25] concerns the target Mitogen-activated protein kinase kinase kinase 2 (Homo sapiens) (UniProt Q9Y2U5). The note with it: Compound concentration 1000.0 nM.
Assay [26] deals with Serine/threonine-protein kinase MARK1 (Homo sapiens) (UniProt Q9P0L2). Particulars: Compound concentration 1000.0 nM.
Serine/threonine-protein kinase MARK1 (Homo sapiens), sequence (Q9P0L2 whole entry, looked up): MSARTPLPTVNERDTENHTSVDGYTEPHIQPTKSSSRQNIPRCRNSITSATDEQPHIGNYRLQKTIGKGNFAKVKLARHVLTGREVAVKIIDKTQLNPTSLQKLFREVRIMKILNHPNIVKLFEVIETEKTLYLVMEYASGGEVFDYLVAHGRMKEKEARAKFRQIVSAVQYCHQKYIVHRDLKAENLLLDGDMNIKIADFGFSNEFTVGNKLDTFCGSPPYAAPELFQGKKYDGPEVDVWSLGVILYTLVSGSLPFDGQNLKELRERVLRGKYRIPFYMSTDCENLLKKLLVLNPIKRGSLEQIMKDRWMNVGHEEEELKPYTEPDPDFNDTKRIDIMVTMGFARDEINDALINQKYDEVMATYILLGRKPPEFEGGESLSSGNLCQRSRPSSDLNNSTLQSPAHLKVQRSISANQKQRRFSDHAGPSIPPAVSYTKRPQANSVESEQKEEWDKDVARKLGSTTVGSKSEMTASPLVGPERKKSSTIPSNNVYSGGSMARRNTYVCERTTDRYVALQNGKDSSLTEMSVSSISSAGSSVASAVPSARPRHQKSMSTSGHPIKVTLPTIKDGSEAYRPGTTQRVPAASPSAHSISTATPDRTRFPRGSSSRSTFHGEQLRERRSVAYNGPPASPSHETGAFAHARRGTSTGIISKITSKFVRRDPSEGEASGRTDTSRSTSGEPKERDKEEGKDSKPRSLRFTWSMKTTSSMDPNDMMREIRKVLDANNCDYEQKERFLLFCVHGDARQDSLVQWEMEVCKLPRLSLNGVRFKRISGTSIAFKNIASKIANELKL
Assay [27] concerns the target MAP/microtubule affinity-regulating kinase 4 (Homo sapiens) (UniProt Q96L34). Particulars: Compound concentration 1000.0 nM.
Assay [28] has as its target Hepatocyte growth factor receptor (Homo sapiens) (UniProt P08581). Particulars: Compound concentration 1000.0 nM.
The target in assay [29] is Mitogen-activated protein kinase kinase kinase 9 (Homo sapiens) (UniProt P80192). The note with it: Compound concentration 1000.0 nM.
Mitogen-activated protein kinase kinase kinase 9 (Homo sapiens), sequence (P80192 whole entry, looked up): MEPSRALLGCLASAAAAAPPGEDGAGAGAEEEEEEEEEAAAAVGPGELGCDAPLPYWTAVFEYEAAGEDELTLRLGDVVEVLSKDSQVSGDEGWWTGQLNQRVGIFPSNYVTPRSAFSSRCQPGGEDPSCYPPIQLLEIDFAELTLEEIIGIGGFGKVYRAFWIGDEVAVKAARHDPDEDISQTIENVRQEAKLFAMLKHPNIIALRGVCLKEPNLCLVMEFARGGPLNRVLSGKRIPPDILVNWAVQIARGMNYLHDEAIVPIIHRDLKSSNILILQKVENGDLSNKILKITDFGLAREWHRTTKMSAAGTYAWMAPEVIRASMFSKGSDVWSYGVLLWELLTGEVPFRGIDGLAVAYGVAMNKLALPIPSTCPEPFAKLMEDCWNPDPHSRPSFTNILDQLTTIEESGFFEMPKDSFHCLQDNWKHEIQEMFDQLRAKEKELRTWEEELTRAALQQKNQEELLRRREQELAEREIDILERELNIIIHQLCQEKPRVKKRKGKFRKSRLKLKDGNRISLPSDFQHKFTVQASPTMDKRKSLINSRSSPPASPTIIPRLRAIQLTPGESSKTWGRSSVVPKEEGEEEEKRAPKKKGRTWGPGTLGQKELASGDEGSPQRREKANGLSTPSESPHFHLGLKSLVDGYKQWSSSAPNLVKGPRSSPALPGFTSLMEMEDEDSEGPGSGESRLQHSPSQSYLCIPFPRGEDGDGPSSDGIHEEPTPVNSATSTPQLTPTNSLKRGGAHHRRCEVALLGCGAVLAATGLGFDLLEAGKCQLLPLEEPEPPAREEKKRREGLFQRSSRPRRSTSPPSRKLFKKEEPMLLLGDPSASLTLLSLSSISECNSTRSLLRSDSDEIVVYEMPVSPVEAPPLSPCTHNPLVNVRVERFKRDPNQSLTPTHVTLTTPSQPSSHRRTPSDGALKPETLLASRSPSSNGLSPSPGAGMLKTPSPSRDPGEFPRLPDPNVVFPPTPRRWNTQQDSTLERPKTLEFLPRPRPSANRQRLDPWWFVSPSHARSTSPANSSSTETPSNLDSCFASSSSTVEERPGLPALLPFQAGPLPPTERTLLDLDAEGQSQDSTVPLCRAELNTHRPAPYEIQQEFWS
The target in assay [30] is Serine/threonine-protein kinase MRCK beta (Homo sapiens) (UniProt Q9Y5S2). The note with it: Compound concentration 1000.0 nM.
For assay [31], the target named is Serine/threonine-protein kinase 38 (Homo sapiens) (UniProt Q15208). The note with it: Compound concentration 1000.0 nM.
Assay [32] deals with Mitogen-activated protein kinase 12 (Homo sapiens) (UniProt P53778). Particulars: Compound concentration 1000.0 nM.
Assay [33] addresses Serine/threonine-protein kinase PAK 1 (Homo sapiens) (UniProt Q13153). The note with it: Compound concentration 1000.0 nM.
The target of assay [34] is Cyclin-dependent kinase 14 (Homo sapiens) (UniProt O94921). The note with it: Compound concentration 1000.0 nM.
The target in assay [35] is Phosphatidylinositol 4,5-bisphosphate 3-kinase catalytic subunit gamma isoform (Homo sapiens) (UniProt P48736). Particulars: Compound concentration 1000.0 nM.
In assay [36] the target is Phosphatidylinositol 4-phosphate 5-kinase type-1 alpha (Homo sapiens) (UniProt Q99755). Particulars: Compound concentration 1000.0 nM.
Assay [37] addresses Phosphatidylinositol 5-phosphate 4-kinase type-2 beta (Homo sapiens) (UniProt P78356). Particulars: Compound concentration 1000.0 nM.
In assay [38] the test system is Proto-oncogene tyrosine-protein kinase receptor Ret (Homo sapiens), P07949 [M918T]. The note with it: Compound concentration 1000.0 nM.
Proto-oncogene tyrosine-protein kinase receptor Ret (Homo sapiens), P07949 [M918T], sequence (P07949 whole entry M918T): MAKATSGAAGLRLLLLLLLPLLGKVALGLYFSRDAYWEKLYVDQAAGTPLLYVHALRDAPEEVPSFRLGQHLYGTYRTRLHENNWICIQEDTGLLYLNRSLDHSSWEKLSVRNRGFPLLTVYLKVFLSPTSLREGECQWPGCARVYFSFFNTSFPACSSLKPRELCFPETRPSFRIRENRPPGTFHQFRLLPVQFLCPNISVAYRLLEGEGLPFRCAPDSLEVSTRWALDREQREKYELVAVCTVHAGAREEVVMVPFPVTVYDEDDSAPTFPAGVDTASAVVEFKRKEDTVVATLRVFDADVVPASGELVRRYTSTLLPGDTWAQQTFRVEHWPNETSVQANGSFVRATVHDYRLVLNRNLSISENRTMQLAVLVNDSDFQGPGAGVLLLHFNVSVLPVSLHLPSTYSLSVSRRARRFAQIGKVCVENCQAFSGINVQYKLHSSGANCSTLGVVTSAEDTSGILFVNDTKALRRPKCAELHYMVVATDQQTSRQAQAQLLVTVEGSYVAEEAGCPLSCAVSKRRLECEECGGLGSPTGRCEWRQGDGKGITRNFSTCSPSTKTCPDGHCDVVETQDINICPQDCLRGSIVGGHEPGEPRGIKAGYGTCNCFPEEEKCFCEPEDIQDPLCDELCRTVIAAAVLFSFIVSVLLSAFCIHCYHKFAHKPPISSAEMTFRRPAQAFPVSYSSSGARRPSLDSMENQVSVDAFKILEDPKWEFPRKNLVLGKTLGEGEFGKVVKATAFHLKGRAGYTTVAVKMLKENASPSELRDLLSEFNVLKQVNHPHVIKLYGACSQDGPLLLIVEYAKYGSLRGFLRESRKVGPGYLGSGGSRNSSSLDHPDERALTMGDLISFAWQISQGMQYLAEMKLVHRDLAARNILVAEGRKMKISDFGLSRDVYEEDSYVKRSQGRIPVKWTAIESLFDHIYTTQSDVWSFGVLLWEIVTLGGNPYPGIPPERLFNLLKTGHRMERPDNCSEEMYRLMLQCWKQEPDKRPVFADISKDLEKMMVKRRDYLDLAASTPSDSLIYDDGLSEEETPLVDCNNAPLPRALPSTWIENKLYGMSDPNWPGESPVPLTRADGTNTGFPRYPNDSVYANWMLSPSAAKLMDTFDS
For assay [39], the target named is Serine/threonine-protein kinase RIO2 (Homo sapiens) (UniProt Q9BVS4). The note with it: Compound concentration 1000.0 nM.
For assay [40], the target named is Ribosomal protein S6 kinase alpha-4 (Homo sapiens) (UniProt O75676). The note with it: Compound concentration 1000.0 nM.
In assay [41] the target is SRSF protein kinase 1 (Homo sapiens) (UniProt Q96SB4). Particulars: Compound concentration 1000.0 nM.
Assay [42] concerns the target Serine/threonine-protein kinase 36 (Homo sapiens) (UniProt Q9NRP7). The note with it: Compound concentration 1000.0 nM.
Assay [43] deals with Tyrosine-protein kinase SYK (Homo sapiens) (UniProt P43405). Particulars: Compound concentration 1000.0 nM.
The target of assay [44] is Mitogen-activated protein kinase kinase kinase 7 (Homo sapiens) (UniProt O43318). Particulars: Compound concentration 1000.0 nM.
For assay [45], the target named is BDNF/NT-3 growth factors receptor (Homo sapiens) (UniProt Q16620). The note with it: Compound concentration 1000.0 nM.

Kappa-type opioid receptor, sequence (P41145 whole entry): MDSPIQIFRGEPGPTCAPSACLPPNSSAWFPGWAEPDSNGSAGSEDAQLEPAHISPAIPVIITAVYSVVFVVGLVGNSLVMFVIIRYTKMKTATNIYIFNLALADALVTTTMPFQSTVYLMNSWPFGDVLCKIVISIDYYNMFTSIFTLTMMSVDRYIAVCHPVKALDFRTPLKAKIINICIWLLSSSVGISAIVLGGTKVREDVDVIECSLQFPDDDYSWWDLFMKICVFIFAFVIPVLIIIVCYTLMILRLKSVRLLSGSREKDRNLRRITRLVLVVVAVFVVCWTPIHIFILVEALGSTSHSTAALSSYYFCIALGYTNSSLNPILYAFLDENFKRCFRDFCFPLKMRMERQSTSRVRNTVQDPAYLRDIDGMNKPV
Hepatocyte growth factor receptor (Homo sapiens), sequence (P08581 whole entry): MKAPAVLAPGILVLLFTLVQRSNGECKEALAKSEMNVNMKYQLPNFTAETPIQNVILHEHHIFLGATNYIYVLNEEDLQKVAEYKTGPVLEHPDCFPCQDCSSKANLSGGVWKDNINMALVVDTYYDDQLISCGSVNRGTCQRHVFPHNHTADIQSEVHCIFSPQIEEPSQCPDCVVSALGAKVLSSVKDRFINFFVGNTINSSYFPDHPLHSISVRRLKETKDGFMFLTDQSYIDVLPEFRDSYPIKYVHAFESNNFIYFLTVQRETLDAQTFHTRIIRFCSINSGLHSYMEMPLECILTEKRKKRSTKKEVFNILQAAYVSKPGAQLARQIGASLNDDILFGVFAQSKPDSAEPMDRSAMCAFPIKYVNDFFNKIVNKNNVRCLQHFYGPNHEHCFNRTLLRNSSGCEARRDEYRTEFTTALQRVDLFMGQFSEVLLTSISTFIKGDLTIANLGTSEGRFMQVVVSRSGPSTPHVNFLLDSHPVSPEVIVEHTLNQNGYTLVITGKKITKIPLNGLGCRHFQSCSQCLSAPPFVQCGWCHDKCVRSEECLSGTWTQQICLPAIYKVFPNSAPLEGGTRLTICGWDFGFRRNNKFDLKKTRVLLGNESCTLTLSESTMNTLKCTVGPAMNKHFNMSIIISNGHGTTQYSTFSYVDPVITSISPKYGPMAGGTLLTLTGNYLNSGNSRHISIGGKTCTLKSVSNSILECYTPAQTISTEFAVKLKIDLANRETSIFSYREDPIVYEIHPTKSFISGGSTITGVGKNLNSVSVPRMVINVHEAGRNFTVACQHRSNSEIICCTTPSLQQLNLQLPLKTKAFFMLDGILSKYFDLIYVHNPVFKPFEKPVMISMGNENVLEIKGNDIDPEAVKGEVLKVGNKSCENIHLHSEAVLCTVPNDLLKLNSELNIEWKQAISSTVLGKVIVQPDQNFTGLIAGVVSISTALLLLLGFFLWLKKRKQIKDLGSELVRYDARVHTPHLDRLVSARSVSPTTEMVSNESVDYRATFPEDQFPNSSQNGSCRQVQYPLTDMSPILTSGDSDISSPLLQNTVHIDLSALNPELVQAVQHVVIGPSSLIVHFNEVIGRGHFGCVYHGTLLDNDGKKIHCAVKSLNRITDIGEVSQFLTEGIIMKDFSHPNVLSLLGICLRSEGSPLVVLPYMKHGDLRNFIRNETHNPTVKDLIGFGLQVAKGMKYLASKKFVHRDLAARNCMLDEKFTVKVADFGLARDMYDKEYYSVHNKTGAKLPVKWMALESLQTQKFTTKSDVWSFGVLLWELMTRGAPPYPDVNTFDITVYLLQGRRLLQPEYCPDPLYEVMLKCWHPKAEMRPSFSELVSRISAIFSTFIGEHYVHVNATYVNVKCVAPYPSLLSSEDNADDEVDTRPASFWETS

On to `CC(C)(C)OC(=O)N1CCCC1CNC1CCC(c2cc(F)ccc2F)(S(=O)(=O)c2ccc(Cl)cc2)CC1` (stereo unspecified) [GSI-NC], for which the Ki in [1] (read-out: Ki) was 3.3 µM; in assay [1] (read-out: pKi (converted)) it was 3.31 µM; in assay [2] it was 0.959 µM.

On to `O=S(=O)(NC1CCC(c2cc(F)ccc2F)(S(=O)(=O)c2ccc(Cl)cc2)CC1)C(F)(F)F` (stereo unspecified) [MRK-560], for which the residual activity in assay [3] was 100%; in [4] it was 100%; in [5], 92%; in [6], 100%; in assay [7], 84%; in assay [8] it was 100%. Further, the residual activity in assay [9] was 100%; in [10], 100%; in [11], 94%; in assay [12] it was 0%; in [13] it was 100%; in assay [14], 100%. Also, the residual activity in assay [15] was 100%; in assay [16], 82%; in assay [17], 91%; in assay [18], 100%; in assay [19] it was 85%; in assay [20] it was 92%. The residual activity in assay [21] is 93%; in [22] it was 93%; in [23], 100%; in [24] it was 71%; in assay [25], 98%; in assay [26] it was 100%. Also, the residual activity is 100% in assay [27]; 100% in assay [28]; 98% in [29]; 100% in assay [30]; 100% in assay [31]; 89% in assay [32]. For the same compound, the residual activity is 93% in [33]; 100% in assay [34]; 100% in assay [35]; 100% in assay [36]; 68% in assay [37]; 92% in [38]. The residual activity in assay [39] was 82%; in assay [40], 100%; in [41], 100%; in [42] it was 100%; in [43], 89%; in [44], 100%. In [45], the residual activity was 83%.

The values above are taken from ChEMBL document CHEMBL4507288 (2021).
